The record followed here is patent US11584749B2, “Phosphor-tetrazine compound and use thereof” (Spark Biopharma, Inc., priority 2018, dated 2023).

Molecules are shown by their SMILES.

In assay [1] the test system is microtubule (HeLa human cervical cancer cells). The experiment in a line: Fluorescence bio-imaging of microtubule in fixed HeLa cells pre-treated with Docetaxel-TCO conjugate. The class given is cell-based. To be noted: for fluorescence signal on addition to cells: fixed HeLa cells cultured with Dox-TCO for 1 hour, washed with PBS; for specificity of staining, immunofluorescence with α-tubulin antibody: fixed HeLa cells, Dox-TCO. As to the method:
(§1) The fluorescence imaging test was performed using a DeltaVision Elite imaging system of GE Healthcare, and an Olympus IX-71 microscope was used.
Docetaxel-TCO conjugate (Dox-TCO) was used for fluorescence bio-imaging of microtubule. HeLa human cervical cancer cells were fixed, and cultured with Dox-TCO for 1 hour, and then washed with PBS.

Assay [2] concerns mitochondria (HeLa cells). Put plainly: Fluorescence imaging of mitochondria in living HeLa cells pre-treated with TPP-TCO. The class given is cell-based, human. To be noted: for position of fluorescence signal versus MitoTracker Deep Red: HeLa cells, TPP-TCO and compound; for fluorescence mitochondria image: living HeLa cells treated with TPP-TCO for 1 hour; for fluorescence mitochondria image / fluorescence expression intensity in the extracellular region: then compound; for fluorescence expression intensity in the extracellular region: living HeLa cells treated with TPP-TCO. As to the method:
as §1
In order to confirm the fluorescence imaging of mitochondria in living cells, it was tested by the following method.
HeLa cells were incubated for 1 hour in the presence or absence of triphenylphosphonium (TPP)-TCO, and then HeLa cells were washed and treated with the compound of Example 5 or Example 6.
In addition, in order to confirm the selectivity of TPP-TCO and Example 5, and TPP-TCO and Example 6 for mitochondria, HeLa cells were treated with MitoTracker Deep Red, a mitochondria coloring dye, As a result, it was observed that the position of the fluorescence signal of MitoTracker Deep Red was consistent with that of Example 5 or Example 6.

Regarding `Cc1nnc(-c2ccn3c4c(c(-c5ccccc5)c3c2)CN(CCCN2CCN(CCC(=O)O)CC2)C4=O)nn1` [Example 5, 3-(4-(3-(7-(6-methyl-1,2,4,5-tetrazin-3-yl)-3-oxo-9-phenyl-1,3-dihydro-2H-pyrrolo[3,4-b]indolizin-2-yl)propyl)piperazin-1-yl)propanoic acid], in assay [1], the “fluorescence signal on addition to cells” value is “a bright fluorescence signal was generated” and the “specificity of staining, immunofluorescence with α-tubulin antibody” value is listed as “microtubule specific staining”. In assay [2], the “position of fluorescence signal versus MitoTracker Deep Red” value is reported as “consistent”, the fluorescence mitochondria image entry is “a clear fluorescence mitochondria image was observed” and the “fluorescence expression intensity in the extracellular region” value was 0.
For `CCN(CC)c1ccc(-c2c3c(n4ccc(-c5nnc(C)nn5)cc24)C(=O)N(CCCN2CCN(C)CC2)C3)cc1` [Example 6, 9-(4-(diethylamino)phenyl)-7-(6-methyl-1,2,4,5-tetrazin-3-yl)-2-(3-(4-methylpiperazin-1-yl)propyl)-1,2-dihydro-3H-pyrrolo[3,4-b]indolizin-3-one], in that order: “a bright fluorescence signal was generated”, “microtubule specific staining”, “consistent”, “a clear fluorescence mitochondria image was observed” and 0.
